From patent US20090197900A1, “METHODS OF TREATING HEART FAILURE AND RENAL DYSFUNCTION IN INDIVIDUALS WITH AN ADENOSINE A1 RECEPTOR ANTAGONIST” (priority 2007, published 2009)

Test system: subjects with acute CHF and renal impairment having BNP levels above 500 pg/mL
Assay: Separate analysis of the Example 1 trial for subjects with BNP levels exceeding 500 pg/mL (BNP subgroup)
Assay type: in vivo, human
Details: 30 mg KW-3902, FIG. 14
Method: More than 300 subjects hospitalized due to acute CHF requiring intravenous diuretic therapy to treat fluid overload, and presenting with creatinine clearance values between 20 to 80 mL/min were identified. The subjects were randomized to receive either placebo, or 10 mg, 20 mg or 30 mg intravenous KW-3902 per day. The subjects' BNP levels, NT-Pro-BNP, serum creatinine, weight, and NYHA Class were measured.
On day 1, KW-3902 (or placebo) was co-administered with intravenous furosemide (LASIX™). The specified dose of KW-3902 (or placebo) was infused over a four hour time period. Subjects received therapy for up to three days. Serum creatinine, weight, dyspnea, and worsening heart failure were assessed daily by the investigator on days 1 through 14. Worsening heart failure was investigator determined and required an increase in dose or reinstitution of LASIX, mechanical respiratory or circulatory assist measures, administration of intravenous positive […], or administration of intravenous vasodilators.
To compare the therapeutic effect of KW-3902 on individuals with different levels of BNP and or NT-Pro-BNP, the results of the trial discussed in Example 1 were separately analyzed to distinguish subjects with BNP levels exceeding 500 pg/mL. Approximately 75% of the subjects described in Example 1 fell within the subgroup having BNP levels above 500 pg/mL. […]

CCCn1c(=O)c2[nH]c(C34CC5CC(CC3C5)C4)nc2n(CCC)c1=O [KW-3902, 8-(3-noradamantyl)-1,3-dipropylxanthine]
individuals characterized as modified "Success": greater than 65%
